Results: paper PMC11459966, “Oral pharmacokinetics and efficacy of oral phospholipid remdesivir nucleoside prodrugs against SARS-CoV-2 in mice” (Antimicrobial Agents and Chemotherapy, 2024)
“Also recorded” adds a separate entry of the source. Read-outs that look alike come from different tables or passages of the source.

Experiments:
[1] = design: method as in PMID 34937145; conditions: early administration, non-hospitalized high-risk individuals ref 5; cited from earlier work
[2] = test system: SARS-CoV-2 isolate USA-WA1/2020; test: microbe, parasite or virus in culture
[3] = test system: SARS-CoV-2 isolate USA-WA1/2020; test: microbe, parasite or virus in culture; remark: listed apart in the source
Calu-3 cells = test system: Calu-3 cells; design: method as in PMID 37040439; conditions: Calu-3, CellTiter-Glo, previously published, identical conditions ref 7; cited from earlier work
[4] = Cell viability assay (CellTiter-Glo), Vero-TMPRSS2; assay type: cell-based, African green monkey; conditions: African green monkey, Vero-TMPRSS2 cells, 48 h incubation
Protocol: Cell viability assays (Table 1) were performed as previously described ([7]). Cells were cultured and seeded as per in vitro antiviral studies in opaque walled 96-well cell culture plates and incubated overnight for Huh7.5, A2T2-A549, and Vero-E6-TMPRSS2 cells and for 2 days for Calu-3 cells. Compounds or controls were added at the indicated concentrations in a total volume of 100 µL, and cells were incubated for 48 h. An equal volume of CellTiter-Glo reagent (Promega, Cat. #G7570) or CellTiter-Glo 2.0 reagent (Promega, Cat. #G9241) was added and mixed, and luminescence was recorded on a Veritas Microplate Luminometer (Turner BioSystems) or a Spark Multimode plate reader (Tecan) according to manufacturer instructions. Percent viability was normalized to DMSO controls, and CC50 values were derived from best fit curves calculated in Prism 10.

[5] = test system: SARS-CoV-2 isolate USA-WA1/2020; test: microbe, parasite or virus in culture; assay type: cell-based; conditions: Severe acute respiratory syndrome coronavirus 2; Calu-3 cells, 44–48 hpi
in vivo = conditions: male, BALB/c, mouse
[6] = Single dose PO or IV plasma pharmacokinetics and tolerability in BALB/c mice; conditions: for AUC / Cmax: male, BALB/c, mouse, in vivo
[7] = test system: SARS-CoV-2 isolate USA-WA1/2020; test: microbe, parasite or virus in culture; remark: listed apart in the source
[8] = 7-day oral tolerability study with terminal pharmacokinetics in Syrian hamsters; assay type: in vivo; conditions: 100 mg/kg PO daily, 7 days
Protocol: (§1) Fig 3 Oral RVn prodrugs maintain high serum levels after repeated dosing in mice and hamsters. Multiple-dose oral tolerability and pharmacokinetics in mice and Syrian hamsters: (A and B) 5-day oral tolerability study in BALB/c mice with pharmacokinetics obtained after the final dose. Male 20–22 g mice were given the indicated drugs at (A) 80 mg/kg or (B) 100 mg/kg PO daily in 0.1 M sodium carbonate/bicarbonate pH 9 for 5 days. Plasma was obtained after the last dose at 1, 3, 6, and 12 h (In Vivo Technologies, Moffatt Field, CA). (C) 7-day oral tolerability study in Syrian hamsters with pharmacokinetics obtained after the final dose. […] All plasma samples were analyzed to determine prodrug levels (Aliri Bio, Colorado Springs, CO).
A 7-day oral tolerability and terminal pharmacokinetic study in 100–125 g male Syrian hamsters were done at Attentive Sciences (Stillwell, KS), under IACUC approval number 1123–6788. […] Daily clinical observation and weights were obtained. After the day 7 oral dose blood was obtained at the indicated times and plasma was frozen for analysis.

[9] = test system: SARS-CoV-2 isolate USA-WA1/2020; design: method as in PMID 37040439; conditions: Calu-3, dotted lines of Fig. 2 and 3 ref 7; read-out: in vitro EC90 for SARS-CoV-2 infection in Calu-3 cells; cited from earlier work
[10] = 5-day oral tolerability study with terminal pharmacokinetics in BALB/c mice; assay type: in vivo; conditions: 80 mg/kg or 100 mg/kg daily PO
Protocol: as §1
After fortification, 50 µL of plasma was crashed with 400 µL of methanol containing 10 ng/mL of the internal standard (V2066). One hundred fifty microliters of the supernatant was removed and diluted with 150 µL of water in a clean 96 well injection plate.
Chromatography for the prodrugs was performed on a Raptor Biphenyl (2.1 × 50) column at a flow rate of 0.5 mL/min. A gradient method starting at 60% B (0.1% formic acid in 90:10 methanol:acetonitrile) for 30 s and then ramping to 95% B over 2.5 min. This composition was held for 1.0 min before being returned to starting conditions and re-equilibration to 40% A (10 mM ammonium formate with 0.2% formic acid in water).
Oral pharmacokinetic studies were carried out at In Vivo Technologies (Moffatt Field, CA) in male BALB/c mice, 22–23 g under IACUC protocol number IVT-11–010Y12 (LifeSource Animal Care and Use Committee). […] Blood was obtained by facial vein or terminal cardiac puncture at the indicated times and plasma was frozen for analysis. Similar procedures were followed for 5-day tolerability and terminal dose pharmacokinetic studies in mice at oral daily doses of 80 or 100 mg/kg.

[11] = Cell viability assay (CellTiter-Glo), A2T2-A549; conditions: human, A2T2-A549 cells

CCC(CC)COC(=O)[C@H](C)N[P@](=O)(OC[C@H]1O[C@@](C#N)(c2ccc3c(N)ncnn23)[C@H](O)[C@@H]1O)Oc1ccccc1 [remdesivir]
decrease of the risk of hospitalization or death [1]: 87%

CCCCCCCCCCCCCCCCCCOC[C@H](COP(=O)(O)OC[C@H]1O[C@@](C#N)(c2ccc3c(N)ncnn23)[C@H](O)[C@@H]1O)OCc1ccccc1 [Compound V2043, 1-O-octadecyl-2-O-benzyl-sn-glyceryl-P-RVn]
EC50 ([2]; Severe acute respiratory syndrome coronavirus 2, Vero/TMPRSS2, read-out: EC50 μM ± SD): 0.104 ± 0.03 µM
EC90 ([2]; Severe acute respiratory syndrome coronavirus 2, Vero/TMPRSS2, read-out: EC90 μM ± SD): 0.248 ± 0.052 µM
EC50 ([3]; Severe acute respiratory syndrome coronavirus 2, Huh7.5, read-out: EC50 μM ± SD): 0.117 ± 0.009 µM
EC90 ([3]; Severe acute respiratory syndrome coronavirus 2, Huh7.5, read-out: EC90 μM ± SD): 0.293 ± 0.042 µM
CC50 (Calu-3 cells): 58300 nM
CC50 at 48 h [4]: 82600 nM
EC50 [5]: 0.168 ± 0.074 µM
EC90 [5]: 0.484 ± 0.142 µM
half-life (in vivo; iv, 7 mg/kg): 0.7 h
CL/F (in vivo; po, 20 mg/kg): 4.35 mL/min/kg
Vd/F (in vivo; po, 20 mg/kg): 1.68 L/kg
half-life (in vivo; po, 20 mg/kg): 4.46 h
CL/F (in vivo; po, 60 mg/kg): 5.57 mL/min/kg
Vd/F (in vivo; po, 60 mg/kg): 3.04 L/kg
half-life (in vivo; po, 60 mg/kg): 6.31 h
CL/F (in vivo; po, 180 mg/kg): 14.1 mL/min/kg
Vd/F (in vivo; po, 180 mg/kg): 8.61 L/kg
half-life (in vivo; po, 180 mg/kg): 7.06 h
tolerability of single escalating oral doses ([6]; 20, 60 or 180 mg/kg single oral dose, BALB/c mice): well tolerated with no appreciable adverse effects
AUC ([6]; iv, 7 mg/kg): 46.6 µM·h
Cmax ([6]; iv, 7 mg/kg): 96.6 µM
AUC ([6]; po, 20 mg/kg): 90.1 µM·h
Cmax ([6]; po, 20 mg/kg): 10.6 µM
AUC ([6]; po, 60 mg/kg): 199 µM·h
Cmax ([6]; po, 60 mg/kg): 20.3 µM
AUC ([6]; po, 180 mg/kg): 211 µM·h
Cmax ([6]; po, 180 mg/kg): 17 µM
EC50 ([7]; Severe acute respiratory syndrome coronavirus 2, read-out: EC50 μM ± SD): 0.566 ± 0.028 µM
EC90 ([7]; Severe acute respiratory syndrome coronavirus 2, read-out: EC90 μM ± SD): 1.62 ± 0.227 µM
tolerability of seven-day once-daily oral dosing [8]: well tolerated without any appreciable toxicity; also recorded: No ill effects were reported
EC90 [9]: 320 nM
tolerability of once-daily oral doses for 5 days [10]: no adverse clinical effects were noted
CC50 at 48 h [11]: > 100000 nM
